# Reference: patent US20220364989A1, “METHOD FOR MEASURING PHOTOTOXICITY OR PHOTOALLERGY AND REAGENT FOR USE THEREIN” (FUJIFILM Corporation, priority 2018, published 2022)
# Where two headings read alike, the source gives them in different places.
# How the values were obtained:
# [1] = NAL depletion under and without ultraviolet irradiation, HPLC with fluorescence detection (284 nm excitation, 333 nm fluorescence)
# [2] = cited from earlier work
# [3] = Average score of NAC and NAL depletion and phototoxicity or photoallergy determination, fluorescence detection
# [4] = NAC depletion under and without ultraviolet irradiation, HPLC with fluorescence detection (284 nm excitation, 333 nm fluorescence)
# [5] = cited from earlier work; remark: listed apart in the source
# [6] = NAL depletion under and without ultraviolet irradiation, HPLC with UV detection (281 nm)
# [7] = NAC depletion under and without ultraviolet irradiation, HPLC with UV detection (281 nm)
# [8] = Average score of NAC and NAL depletion and phototoxicity or photoallergy determination, UV detection
# [9] = under light irradiation, single compound
# [10] = photoallergic compound concentration 0.05 mg/mL
# [11] = photoallergic compound concentration 0.2 mg/mL
# [12] = photoallergic compound concentration 0.5 mg/mL
# [13] = under light irradiation, photoallergic compound concentration 0.05 mg/mL
# [14] = under light irradiation, photoallergic compound concentration 0.2 mg/mL
# [15] = under light irradiation, photoallergic compound concentration 0.5 mg/mL
# [16] = without light irradiation, photoallergic compound concentration 0.05 mg/mL
# [17] = without light irradiation, photoallergic compound concentration 0.2 mg/mL
# [18] = without light irradiation, photoallergic compound concentration 0.5 mg/mL
# [19] = 25° C. 24 hours light-shielded, test substance solution 1 mmol/L
# [20] = 2,000 μW/cm^2 for 1 hour then 25° C. 23 hours, test substance solution 1 mmol/L
# [21] = without light irradiation, single compound
# [22] = average of NAC and NAL depletion
molecule,measurement,setting,value
"Cc1c([N+](=O)[O-])c(C)c([N+](=O)[O-])c(C(C)(C)C)c1[N+](=O)[O-] [No. 18, Musk xylene, reference compound]",NAL Depletion (%),[1]; [9],6.4%
same,In vivo photoallergy,[2]; literature classification,Positive
same,Average score (%),[3]; [9],47.6%
same,NAC Depletion (%),[4]; [9],88.9%
same,In vivo phototoxicity,[5]; literature classification,Negative
NS(=O)(=O)c1cc2c(cc1Cl)NCNS2(=O)=O [2-4],Difference in depletion (under light irradiation - without light irradiation) NAL (%),[6]; [10],0.3%
same,Difference in depletion (under light irradiation - without light irradiation) NAL (%),[6]; [11],1.4%
same,Difference in depletion (under light irradiation - without light irradiation) NAL (%),[6]; [12],4.4%
same,NAL Depletion (%) under light irradiation,[6]; [13],0.3%
same,NAL Depletion (%) under light irradiation,[6]; [14],1.4%
same,NAL Depletion (%) under light irradiation,[6]; [15],4.4%
same,NAL Depletion (%) without light irradiation,[6]; [16],0.0%
same,NAL Depletion (%) without light irradiation,[6]; [17],0.0%
same,NAL Depletion (%) without light irradiation,[6]; [18],0.0%
same,Difference in depletion (under light irradiation - without light irradiation) NAL (%),[1]; [10],2.6%
same,Difference in depletion (under light irradiation - without light irradiation) NAL (%),[1]; [11],4.0%
same,Difference in depletion (under light irradiation - without light irradiation) NAL (%),[1]; [12],5.6%
same,NAL Depletion (%) under light irradiation,[1]; [13],2.6%
same,NAL Depletion (%) under light irradiation,[1]; [14],4.0%
same,NAL Depletion (%) under light irradiation,[1]; [15],5.6%
same,NAL Depletion (%) without light irradiation,[1]; [16],0.0%
same,NAL Depletion (%) without light irradiation,[1]; [17],0.0%
same,NAL Depletion (%) without light irradiation,[1]; [18],0.0%
same,Difference in depletion (under light irradiation - without light irradiation) NAC (%),[7]; [10],20.9%
same,Difference in depletion (under light irradiation - without light irradiation) NAC (%),[7]; [11],60.1%
same,Difference in depletion (under light irradiation - without light irradiation) NAC (%),[7]; [12],84.5%
same,NAC Depletion (%) under light irradiation,[7]; [13],20.9%
same,NAC Depletion (%) under light irradiation,[7]; [14],60.1%
same,NAC Depletion (%) under light irradiation,[7]; [15],84.5%
same,NAC Depletion (%) without light irradiation,[7]; [16],0.0%
same,NAC Depletion (%) without light irradiation,[7]; [17],0.0%
same,NAC Depletion (%) without light irradiation,[7]; [18],0.0%
same,Difference in depletion (under light irradiation - without light irradiation) Average score (%),[8]; [11],30.8%
same,Difference in depletion (under light irradiation - without light irradiation) Average score (%),[8]; [12],44.5%
same,Average score (%) under light irradiation,[8]; [14],30.8%
same,Average score (%) under light irradiation,[8]; [15],44.5%
same,Average score (%) without light irradiation,[8]; [16],0.0%
same,Average score (%) without light irradiation,[8]; [17],0.0%
same,Average score (%) without light irradiation,[8]; [18],0.0%
same,Difference in depletion (under light irradiation - without light irradiation) Average score (%),[3]; [10],12.3%
same,Difference in depletion (under light irradiation - without light irradiation) Average score (%),[3]; [11],32.1%
same,Difference in depletion (under light irradiation - without light irradiation) Average score (%),[3]; [12],45.8%
same,Average score (%) under light irradiation,[3]; [13],12.3%
same,Average score (%) under light irradiation,[3]; [14],32.1%
same,Average score (%) under light irradiation,[3]; [15],45.8%
same,Average score (%) without light irradiation,[3]; [16],0.0%
same,Average score (%) without light irradiation,[3]; [17],0.0%
same,Average score (%) without light irradiation,[3]; [18],0.0%
same,Difference in depletion (under light irradiation - without light irradiation) NAC (%),[4]; [10],21.9%
same,Difference in depletion (under light irradiation - without light irradiation) NAC (%),[4]; [11],60.2%
same,Difference in depletion (under light irradiation - without light irradiation) NAC (%),[4]; [12],85.9%
same,NAC Depletion (%) under light irradiation,[4]; [13],21.9%
same,NAC Depletion (%) under light irradiation,[4]; [14],60.2%
same,NAC Depletion (%) under light irradiation,[4]; [15],85.9%
same,NAC Depletion (%) without light irradiation,[4]; [16],0.0%
same,NAC Depletion (%) without light irradiation,[4]; [17],0.0%
same,NAC Depletion (%) without light irradiation,[4]; [18],0.0%
"Tetrachlorosalicylanilide [No. 12, reference compound]",NAL Depletion (%),[1]; [9],86.5%
same,In vivo photoallergy,[2]; literature classification,Positive
same,Average score (%),[3]; [9],92.0%
same,NAC Depletion (%),[4]; [9],97.4%
same,In vivo phototoxicity,[5]; literature classification,Positive
CC(O)CCO (stereo not drawn) [compound 46],Difference in depletion (under light irradiation - without light irradiation) NAL (%),[6],0.0%
same,NAL Depletion (%) without light irradiation,[6]; [19],0.0%
same,NAL Depletion (%) under light irradiation,[6]; [20],0.0%
same,Difference in depletion (under light irradiation - without light irradiation) NAL (%),[1]; single compound,−0.1%
same,NAL Depletion (%),[1]; [21],0.1%
same,Difference in depletion (under light irradiation - without light irradiation) NAC (%),[7],0.7%
same,NAC Depletion (%) without light irradiation,[7]; [19],0.0%
same,NAC Depletion (%) under light irradiation,[7]; [20],0.7%
same,Difference in depletion (under light irradiation - without light irradiation) Average score (%),[8],0.4%
same,Average score (%) under light irradiation,[8]; [22],0.4%
same,Average score (%) without light irradiation,[8]; [22],0.0%
same,Difference in depletion (under light irradiation - without light irradiation) Average score (%),[3]; single compound,0.1%
same,Average score (%),[3]; [21],0.1%
same,Difference in depletion (under light irradiation - without light irradiation) NAC (%),[4]; single compound,0.2%
same,NAC Depletion (%),[4]; [21],0.0%
CC(O)CO (racemic) [compound 54],Difference in depletion (under light irradiation - without light irradiation) NAL (%),[6]; single compound,0.0%
same,NAL Depletion (%),[6]; [21],0.0%
same,Difference in depletion (under light irradiation - without light irradiation) NAL (%),[1]; single compound,0.7%
same,NAL Depletion (%),[1]; [21],0.0%
same,Difference in depletion (under light irradiation - without light irradiation) NAC (%),[7]; single compound,0.2%
same,NAC Depletion (%),[7]; [21],0.0%
same,Difference in depletion (under light irradiation - without light irradiation) Average score (%),[8]; single compound,0.1%
same,Average score (%),[8]; [21],0.0%
same,Difference in depletion (under light irradiation - without light irradiation) Average score (%),[3]; single compound,0.3%
same,Average score (%),[3]; [21],0.0%
same,Difference in depletion (under light irradiation - without light irradiation) NAC (%),[4]; single compound,0.0%
same,NAC Depletion (%),[4]; [21],0.0%
"CC(C)O [No. 47, 2-Propanol]",In vivo photoallergy,[2]; in vivo,Negative
same,Average score (%),[3]; [9],0.2%
same,In vivo phototoxicity,[5]; in vivo,Negative
"CC1(C)S[C@@H]2[C@H](NC(=O)Cc3ccccc3)C(=O)N2[C@H]1C(=O)O [No. 44, Penicillin G, reference compound]",NAL Depletion (%),[1]; [9],1.2%
same,In vivo photoallergy,[2]; literature classification,Negative
same,Average score (%),[3]; [9],1.8%
same,NAC Depletion (%),[4]; [9],2.4%
same,In vivo phototoxicity,[5]; literature classification,Negative
Tetrachlorosalicylanilide [1-4],Difference in depletion (under light irradiation - without light irradiation) NAL (%),[6]; [10],30.3%
same,Difference in depletion (under light irradiation - without light irradiation) NAL (%),[6]; [11],66.5%
same,Difference in depletion (under light irradiation - without light irradiation) NAL (%),[6]; [12],78.7%
same,NAL Depletion (%) under light irradiation,[6]; [13],30.1%
same,NAL Depletion (%) under light irradiation,[6]; [14],67.1%
same,NAL Depletion (%) under light irradiation,[6]; [15],(81.3) %
same,NAL Depletion (%) without light irradiation,[6]; [16],−0.2%
same,NAL Depletion (%) without light irradiation,[6]; [17],0.6%
same,NAL Depletion (%) without light irradiation,[6]; [18],2.6%
same,Difference in depletion (under light irradiation - without light irradiation) NAL (%),[1]; [10],32.5%
same,Difference in depletion (under light irradiation - without light irradiation) NAL (%),[1]; [11],72.6%
same,Difference in depletion (under light irradiation - without light irradiation) NAL (%),[1]; [12],87.1%
same,NAL Depletion (%) under light irradiation,[1]; [13],32.5%
same,NAL Depletion (%) under light irradiation,[1]; [14],72.9%
same,NAL Depletion (%) under light irradiation,[1]; [15],88.9%
same,NAL Depletion (%) without light irradiation,[1]; [16],0.0%
same,NAL Depletion (%) without light irradiation,[1]; [17],0.2%
same,NAL Depletion (%) without light irradiation,[1]; [18],1.8%
same,NAC Depletion (%) under light irradiation,[7]; [13],(58.0) %
same,NAC Depletion (%) under light irradiation,[7]; [14],(−96.9) %
same,NAC Depletion (%) under light irradiation,[7]; [15],(−338.2) %
same,NAC Depletion (%) without light irradiation,[7]; [16],34.2%
same,NAC Depletion (%) without light irradiation,[7]; [17],70.1%
same,NAC Depletion (%) without light irradiation,[7]; [18],93.7%
same,Average score (%) under light irradiation,[8]; [13],44.0%
same,Average score (%) under light irradiation,[8]; [14],−14.9%
same,Average score (%) under light irradiation,[8]; [15],−128.5%
same,Average score (%) without light irradiation,[8]; [16],17.0%
same,Average score (%) without light irradiation,[8]; [17],35.4%
same,Average score (%) without light irradiation,[8]; [18],48.2%
same,Difference in depletion (under light irradiation - without light irradiation) Average score (%),[3]; [10],54.5%
same,Difference in depletion (under light irradiation - without light irradiation) Average score (%),[3]; [11],58.9%
same,Difference in depletion (under light irradiation - without light irradiation) Average score (%),[3]; [12],54.3%
same,Average score (%) under light irradiation,[3]; [13],65.4%
same,Average score (%) under light irradiation,[3]; [14],85.2%
same,Average score (%) under light irradiation,[3]; [15],93.0%
same,Average score (%) without light irradiation,[3]; [16],10.9%
same,Average score (%) without light irradiation,[3]; [17],26.2%
same,Average score (%) without light irradiation,[3]; [18],38.7%
same,Difference in depletion (under light irradiation - without light irradiation) NAC (%),[4]; [10],76.5%
same,Difference in depletion (under light irradiation - without light irradiation) NAC (%),[4]; [11],45.3%
same,Difference in depletion (under light irradiation - without light irradiation) NAC (%),[4]; [12],21.5%
same,NAC Depletion (%) under light irradiation,[4]; [13],98.2%
same,NAC Depletion (%) under light irradiation,[4]; [14],97.5%
same,NAC Depletion (%) under light irradiation,[4]; [15],97.2%
same,NAC Depletion (%) without light irradiation,[4]; [16],21.7%
same,NAC Depletion (%) without light irradiation,[4]; [17],52.2%
same,NAC Depletion (%) without light irradiation,[4]; [18],75.6%
"COc1c2occc2cc2ccc(=O)oc12 [No. 3, 8-Methoxypsoralen, reference compound]",NAL Depletion (%),[1]; [9],45.4%
same,In vivo photoallergy,[2]; in vivo,Positive
same,Average score (%),[3]; [9],72.0%
same,NAC Depletion (%),[4]; [9],98.6%
same,In vivo phototoxicity,[5]; in vivo,Positive
